The record followed here is ChEMBL document CHEMBL3045021, “Synthesis, antibacterial, and antifungal activities of biolabile (E)-1-(4-morpholinophenyl)-3-aryl-prop-2-en-1-ones” (2009).

Molecules are shown by their SMILES. Activity calls are given as the source filed them. The rule behind the calls is not given here.

Test [1] has as its system Salmonella typhi. The experiment in a line: Antimicrobial activity against Salmonella enterica subsp. enterica serovar Typhi at 5 ug/disk after 24 hr by disk diffusion method. It counts as functional. To be noted: read-out: IZ.
The test system of test [2] is Vibrio cholerae. Kind of test: Antimicrobial activity against Vibrio cholerae at 5 ug/disc after 24 hr by disk diffusion method. It counts as functional. The note with it: read-out: IZ.
Test [3] deals with Streptococcus. The experiment in a line: Antimicrobial activity against beta-hemolytic Streptococcus at 5 ug/disk after 24 hr by disk diffusion method. To be noted: read-out: IZ. It counts as functional. (In agar diffusion tests the substance spreads into inoculated agar from a disc or well.)
Test [4] has as its system Staphylococcus aureus. The experiment in a line: Antimicrobial activity against Staphylococcus aureus at 5 ug/disc after 24 hr by disk diffusion method. To be noted: read-out: IZ.
In test [5] the test system is Klebsiella pneumoniae. Kind of test: Antimicrobial activity against Klebsiella pneumoniae at 5 ug/disk after 24 hr by disk diffusion method. The note with it: read-out: IZ.
The subject of test [6] is Shigella flexneri. Kind of test: Antimicrobial activity against Shigella flexneri at 5 ug/disc after 24 hr by disk diffusion method. It counts as functional. The note with it: read-out: IZ.
Test [7] concerns Pseudomonas. The experiment in a line: Antimicrobial activity against Pseudomonas at 5 ug/disk after 24 hr by disk diffusion method. It counts as functional. The note with it: read-out: IZ.
The test system of test [8] is Aspergillus flavus. Kind of test: Antimicrobial activity against Aspergillus flavus at 500 ppm after 72 to 96 hr by disk diffusion method. It counts as functional. The note with it: read-out: IZ.
Test [9] relates to Rhizopus. Kind of test: Antimicrobial activity against Rhizopus at 500 ppm after 72 to 96 hr by disk diffusion method. It counts as functional. To be noted: read-out: IZ.
Test [10] relates to Streptococcus. The experiment in a line: Antimicrobial activity against beta-hemolytic Streptococcus at 200 ppm after 24 hr by disk diffusion method. It counts as functional. The note with it: read-out: IZ.
For test [11], the system named is Nannizzia gypsea. Kind of test: Antimicrobial activity against Microsporum gypseum at 100 ppm after 72 to 96 hr by disk diffusion method. To be noted: read-out: IZ. It counts as functional.
The test system of test [12] is Staphylococcus aureus. Kind of test: Antimicrobial activity against Staphylococcus aureus at 100 ppm after 24 hr by disk diffusion method. It counts as functional.
For test [13], the system named is Streptococcus. Kind of test: Antimicrobial activity against beta-hemolytic Streptococcus at 100 ppm after 24 hr by disk diffusion method. It counts as functional. To be noted: read-out: IZ.
For test [14], the system named is Nannizzia gypsea. Kind of test: Antimicrobial activity against Microsporum gypseum at 200 ppm after 72 to 96 hr by disk diffusion method. It counts as functional.
The test system of test [15] is Salmonella typhi. The experiment in a line: Antimicrobial activity against Salmonella enterica subsp. enterica serovar Typhi at 200 ppm after 24 hr by disk diffusion method. It counts as functional. The note with it: read-out: IZ.
Test [16] has as its system Escherichia coli. Kind of test: Antimicrobial activity against Escherichia coli at 200 ppm after 24 hr by disk diffusion method. It counts as functional. To be noted: read-out: IZ.
In test [17] the test system is Streptococcus. Kind of test: Antimicrobial activity against beta-hemolytic Streptococcus at 500 ppm after 24 hr by disk diffusion method. It counts as functional. To be noted: read-out: IZ.
Test [18] concerns Vibrio cholerae. Kind of test: Antimicrobial activity against Vibrio cholerae at 200 ppm after 24 hr by disk diffusion method. It counts as functional. The note with it: read-out: IZ.
Test [19] deals with Mucor. Kind of test: Antimicrobial activity against Mucor at 500 ppm after 72 to 96 hr by disk diffusion method. To be noted: read-out: IZ. It counts as functional.
Test [20] concerns Shigella flexneri. Kind of test: Antimicrobial activity against Shigella flexneri at 200 ppm after 24 hr by disk diffusion method. It counts as functional. To be noted: read-out: IZ.
The subject of test [21] is Shigella flexneri. The experiment in a line: Antimicrobial activity against Shigella flexneri at 100 ppm after 24 hr by disk diffusion method. It counts as functional. To be noted: read-out: IZ.
Test [22] concerns Vibrio cholerae. The experiment in a line: Antimicrobial activity against Vibrio cholerae at 500 ppm after 24 hr by disk diffusion method. It counts as functional. To be noted: read-out: IZ.
Test [23] relates to Rhizopus. Kind of test: Antimicrobial activity against Rhizopus at 100 ppm after 72 to 96 hr by disk diffusion method. It counts as functional. To be noted: read-out: IZ.
For test [24], the system named is Pseudomonas. Kind of test: Antimicrobial activity against Pseudomonas at 200 ppm after 24 hr by disk diffusion method. It counts as functional. To be noted: read-out: IZ.
Test [25] concerns Salmonella typhi. Kind of test: Antimicrobial activity against Salmonella enterica subsp. enterica serovar Typhi at 100 ppm after 24 hr by disk diffusion method. The note with it: read-out: IZ. It counts as functional.
In test [26] the test system is Aspergillus flavus. The experiment in a line: Antimicrobial activity against Aspergillus flavus at 200 ppm after 72 to 96 hr by disk diffusion method. It counts as functional. The note with it: read-out: IZ.
In test [27] the test system is Staphylococcus aureus. Kind of test: Antimicrobial activity against Staphylococcus aureus at 200 ppm after 24 hr by disk diffusion method. It counts as functional. The note with it: read-out: IZ.
The test system of test [28] is Salmonella typhi. Kind of test: Antimicrobial activity against Salmonella enterica subsp. enterica serovar Typhi at 500 ppm after 24 hr by disk diffusion method. It counts as functional. To be noted: read-out: IZ.
The subject of test [29] is Nannizzia gypsea. The experiment in a line: Antimicrobial activity against Microsporum gypseum at 500 ppm after 72 to 96 hr by disk diffusion method. It counts as functional. The note with it: read-out: IZ.
Test [30] relates to Staphylococcus aureus. The experiment in a line: Antimicrobial activity against Staphylococcus aureus at 500 ppm after 24 hr by disk diffusion method. To be noted: read-out: IZ. It counts as functional.
In test [31] the test system is Klebsiella pneumoniae. Kind of test: Antimicrobial activity against Klebsiella pneumoniae at 200 ppm after 24 hr by disk diffusion method. It counts as functional. The note with it: read-out: IZ.
Test [32] has as its system Mucor. The experiment in a line: Antimicrobial activity against Mucor at 200 ppm after 72 to 96 hr by disk diffusion method. It counts as functional. To be noted: read-out: IZ.
The subject of test [33] is Escherichia coli. Kind of test: Antimicrobial activity against Escherichia coli at 100 ppm after 24 hr by disk diffusion method. It counts as functional.
Test [34] relates to Rhizopus. The experiment in a line: Antimicrobial activity against Rhizopus at 200 ppm after 72 to 96 hr by disk diffusion method. It counts as functional.
The test system of test [35] is Klebsiella pneumoniae. Kind of test: Antimicrobial activity against Klebsiella pneumoniae at 500 ppm after 24 hr by disk diffusion method. To be noted: read-out: IZ. It counts as functional.
Test [36] deals with Vibrio cholerae. The experiment in a line: Antimicrobial activity against Vibrio cholerae at 100 ppm after 24 hr by disk diffusion method. It counts as functional. To be noted: read-out: IZ.
Test [37] concerns Pseudomonas. The experiment in a line: Antimicrobial activity against Pseudomonas at 100 ppm after 24 hr by disk diffusion method. It counts as functional. To be noted: read-out: IZ.
Test [38] concerns Pseudomonas. Kind of test: Antimicrobial activity against Pseudomonas at 500 ppm after 24 hr by disk diffusion method. It counts as functional. To be noted: read-out: IZ.
Test [39] relates to Shigella flexneri. Kind of test: Antimicrobial activity against Shigella flexneri at 500 ppm after 24 hr by disk diffusion method. It counts as functional. To be noted: read-out: IZ.
Test [40] concerns Mucor. The experiment in a line: Antimicrobial activity against Mucor at 100 ppm after 72 to 96 hr by disk diffusion method. It counts as functional. The note with it: read-out: IZ.
Test [41] relates to Escherichia coli. The experiment in a line: Antimicrobial activity against Escherichia coli at 500 ppm after 24 hr by disk diffusion method. It counts as functional. The note with it: read-out: IZ.
Test [42] deals with Aspergillus flavus. Kind of test: Antimicrobial activity against Aspergillus flavus at 100 ppm after 72 to 96 hr by disk diffusion method. It counts as functional. To be noted: read-out: IZ.
Test [43] deals with Klebsiella pneumoniae. The experiment in a line: Antimicrobial activity against Klebsiella pneumoniae at 100 ppm after 24 hr by disk diffusion method. It counts as functional. To be noted: read-out: IZ.

`O=C(O)c1cn(C2CC2)c2cc(N3CCNCC3)c(F)cc2c1=O` [CIPROFLOXACIN]: the zone of inhibition at 5 µg/disc in the test on Salmonella typhi [1] came out at 22 mm; with Vibrio cholerae [2], 23 mm; in the test with Streptococcus [3], 28 mm; in the test with Staphylococcus aureus [4], 25 mm; with Klebsiella pneumoniae [5], 26 mm; with Shigella flexneri [6], 23 mm. Also, the zone of inhibition at 5 µg/disc in the test on Pseudomonas [7] was determined as 23 mm.
Consider `Cc1ccc(/C=C/C(=O)c2ccc(N3CCOCC3)cc2)cc1`, for which the zone of inhibition at 500 ppm amounted to 17 mm with Aspergillus flavus [8]; 17 mm in the test on Rhizopus [9]; 30 mm in the test with Streptococcus [17]; 17 mm with Mucor [19]; 17 mm in the test on Vibrio cholerae [22]; 17 mm in the test with Salmonella typhi [28]. In addition, the zone of inhibition at 500 ppm is 17 mm in the test on Nannizzia gypsea [29]; 30 mm in the test with Staphylococcus aureus [30]; 30 mm in the test with Klebsiella pneumoniae [35]; 30 mm with Pseudomonas [38]; 30 mm with Shigella flexneri [39]; 17 mm in the test on Escherichia coli [41]. In addition, the zone of inhibition at 200 ppm in the test on Streptococcus [10] is 17 mm; in the test with Salmonella typhi [15] it was 17 mm; in the test with Escherichia coli [16], 12 mm; in the test with Vibrio cholerae [18] it was 12 mm; in the test with Shigella flexneri [20] it was 17 mm; with Pseudomonas [24], 22 mm. For the same compound, the zone of inhibition at 200 ppm is 12 mm in the test with Aspergillus flavus [26], 17 mm with Staphylococcus aureus [27], 17 mm in the test on Klebsiella pneumoniae [31] and 12 mm in the test on Mucor [32]. For the same compound, the zone of inhibition at 100 ppm in the test with Nannizzia gypsea [11], with Streptococcus [13], in the test on Shigella flexneri [21], in the test on Rhizopus [23], with Salmonella typhi [25] and in the test on Vibrio cholerae [36] was 12 mm throughout. Besides, the zone of inhibition at 100 ppm in the test with Pseudomonas [37] was found to be 17 mm; in the test on Mucor [40], 12 mm; in the test on Aspergillus flavus [42], 12 mm; with Klebsiella pneumoniae [43] it was 12 mm. The “inhibition zone (IZ)” value in the test on Staphylococcus aureus [12], in the test with Nannizzia gypsea [14], with Escherichia coli [33] and with Rhizopus [34] was “inactive” in each case.
